Experimental data published in US20030215788A1, “Cysteine thiol-protected peptides for use in immunoassays” (priority 1989, published 2003).
Non-standard residues stand in square brackets, D forms with d. No end group written: not given here. Cys∗ = not defined here

What was measured:
Assay type in all cases: binding, human
[1] = system: antibodies to HTLV-I and/or HTLV-II; test: membrane concentration immunoassay with peptide 121-1GC1 on suspected HTLV-I/II sera; settings: for Reactivity with deprotected peptide (color grade): 80 μg peptide/5 mg bead/550 μl
Description: Serum or plasma samples (40 μl) were diluted 1:10 in dilution buffer (10% heat inactivated normal goat serum, 1% dextran sulfate, 0.2% Tween 20, 2.5% nonfat dry milk, 15 ppm Kathon CG, 0.005% antifoam A, in 20 mM sodium citrate buffer, pH 7.4). Diluted specimen was added to the surface of the membrane and allowed to absorb completely. After waiting 2 min. from the time of specimen addition, 1 ml of wash buffer (0.01M Tris-buffered saline, pH 6.0, 0.05M NaCl, 0.005M MgCl2, 0.1% sodium azide, 10 μg/ml nitro blue tetrazolium, 0.5M potassium thiocyanate) was added and allowed to completely absorb through the membrane. About 0.150 ml (3 drops) of goat anti-human Ig-alkaline phosphatase conjugate diluted in 10 mM phosphate buffered saline, pH 7.4, 0.2% goat gamma globulin, 1% bovine serum albumin, 1 mM MgCl2, 0.1 mM ZnCl2 was added to the membrane and allowed to absorb completely. The membrane was washed twice as above (2 ml) and about 0.150 ml (3 drops) of substrate (1M 2-amino-2-methyl-1-propanol, pH 10.3, 5 mg/ml 3-indoxyl phosphate) was added and allowed to absorb completely. After about 5 min. about 1 ml of 0.5M EDTA, pH 7.4, was passed through the membrane to stop the reaction. After the stop solution was completely absorbed the units were read visually or semi-quantitatively by reflectance.
A wide variety of positive, negative, EIA positive/western blot a typical and immune sensitized specimens have been tested with the preferred peptide 39 analog, peptide 39-GC, as the test antigen.
Results of assays with peptide 121-1GC1 were compared to those obtained with other HTLV-I/II tests, such as the polymerase chain reaction (PCR), radioimmunoprecipitation (RIP), Western blot (WB), and viral lysate EIAS. The procedure as described in Example II was used for peptide 121-1GC1, except that two drops of samples were used and the conjugate was used at a two-fold higher concentration. The assays were performed with 10 serum samples suspected of containing antibodies to HTLV-I and/or HTLV-II. The PCR assay for HTLV-II was performed generally according to PCR Technology, Principles and Applications for DNA Amplification, ed. H. A. Ehrlich, Stockton Press, N.Y. (1989), incorporated herein by reference.
In other experiments, screening of the HTLV-I peptide in a variety of forms against a serum panel of suspected HTLV-I/II positive individuals yielded inconclusive results when compared to results obtained by RIP, Western blot, and commercially available HTLV-I EIA assays.

[2] = system: Antibodies to HTLV-I; test: HTLV-I peptides on latex microparticles tested for reactivity with control sera; settings: Serum Sample 40359, HTLV-I EIA positive control, undiluted; 50 μg peptide/5 mg beads/550 μl
[3] = system: Antibodies to HIV-2; test: EIA of dilutional series of HIV-2 positive sera
Description: Alternative methods of testing immunologic cross-reactivity were also used. In one such method L5 Peptides 39 and 39GC were tested by ELISA as previously described in U.S. Pat. No. 4,629,783. Briefly, stock solutions of peptides 39 and 39-GC were prepared in 6M Gu-HCl. Working dilutions of 20 µg/ml and 6 μg/ml respectively were prepared by dilution of stock solution 0 with 0.05M carbonate/bicarbonate buffer, pH 9.5. Wells of microtiter plates were filled with 100 μl of the working dilution of the peptides and allowed to stand overnight at room temperature. Coating solution was removed and 300 μl of blocking solution supra containing 0.5M ethanolamine was added for 1 hr. at room temperature. Blocking solution was removed and the plates were used immediately or allowed to dry and stored for later use.
Plasma samples were diluted (See Table 1) in sample dilution buffer (above) and 100 μl was added to individual wells. Samples were incubated for 30 min. at 37° C., then removed and the wells were washed six times with 0.15M NaCl, 0.05% Tween 20. One hundred microliters of goat antihuman Ig-horseradish peroxidase conjugate diluted in citrate buffer, pH 7.0, 1% normal goat serum was added to each well for 30 min at 37° C. prior to washing six times as above. The ELISA assay was developed by adding 100 μl/well of substrate solution (80 μg/ml tetramethyl benzidine, 0.0015% hydrogen peroxide in citrate/phosphate buffer, pH 6.0) for 30 min. at room temperature. Reactions were stopped with the addition of 100 μl of H2SO4 per well, and the ratio of the optical density at 450 nm to 630 nm was determined by an automated ELISA reader. The cutoff value for a positive result was set at 0.225 Absorbance Units above the average absorbance obtained for three known negative samples.
The immunoreactivity of HIV-2 peptides synthesized with protected cysteine thiol groups was determined. […] EIAs were performed as described above using viral lysates of HIV-1 and HIV-2 and peptides 39GC (HIV-1) and 41-2-3GC. Reactivity was determined for dilutions of two HIV-2 positive sera, F504282, obtained from a patient in New York, and “GOM,” provided by the Institut Pasteur.
The assays were EIAs performed generally as described above with varying dilutions of HIV-2 positive serum specimens.

H-CGG-QNRRGLDLLFWEQGGLC*KALQEQC*-NH2 (chain 1 H-CGGQNRRGLDLLFWEQGGLC; chain 2 KALQEQC-NH2; not fully specified; cysteine pairing not given here) [Peptide 121-1GC1]
Reactivity with deprotected peptide (color grade) ([1]; Sample No. 39266): trace
Reactivity with deprotected peptide (color grade) ([1]; Sample No. 89232): trace
Reactivity with deprotected peptide (color grade) ([1]; Sample No. 89379): trace
Reactivity with deprotected peptide (color grade) ([1]; Sample No. 89430): trace
Reactivity with deprotected peptide (color grade) ([1]; Sample No. 89442): trace
result on serum panel of suspected HTLV-I/II positive individuals ([1]; compared with RIP, Western blot and commercial HTLV-I EIA): Some samples which were purportedly positive by certain of the tests were negative

H-QNRRGLDLLFWEQGGLC*KALQEQC*-NH2 (chain 1 H-QNRRGLDLLFWEQGGL[Cys∗]; chain 2 KALQEQ[Cys∗]-NH2; not fully specified; reading uncertain; also: modified residues) [Peptide 121-1G1]
Reactivity to Antibodies to HTLV-I (color grade) [2]: trace

Cys-Gly-Gly-Gln-Asp-Gln-Ala-Arg-Leu-Asn-Ser-Trp-Gly-Cys*-Ala-Phe-Arg-Gln-Val-Cys*-NH2 [Peptide 41-2-3GC]
Reactivity in EIA ([3]; HIV-2 positive serum F504282 (A), 1:5): 3.000
Reactivity in EIA ([3]; HIV-2 positive serum F504282 (A), 1:10): 3.000
Reactivity in EIA ([3]; HIV-2 positive serum F504282 (A), 1:20): 3.000
Reactivity in EIA ([3]; HIV-2 positive serum F504282 (A), 1:40): 2.828
Reactivity in EIA ([3]; HIV-2 positive serum F504282 (A), 1:80): 2.107
Reactivity in EIA ([3]; HIV-2 positive serum F504282 (A), 1:160): 1.441
Reactivity in EIA ([3]; HIV-2 positive serum F504282 (A), 1:320): 0.941
Reactivity in EIA ([3]; HIV-2 positive serum F504282 (A), 1:640): 0.588
Reactivity in EIA ([3]; HIV-2 positive serum F504282 (A), 1:1280): 0.302
Reactivity in EIA ([3]; HIV-2 positive serum F504282 (A), 1:2560): 0.180
Reactivity in EIA ([3]; HIV-2 positive serum F504282 (A), Neat): 3.000
Reactivity in EIA ([3]; HIV-2 positive serum GOM (B), 1:2): 3.000
Reactivity in EIA ([3]; HIV-2 positive serum GOM (B), 1:4): 3.000
Reactivity in EIA ([3]; HIV-2 positive serum GOM (B), 1:8): 3.000
Reactivity in EIA ([3]; HIV-2 positive serum GOM (B), 1:16): 3.000
Reactivity in EIA ([3]; HIV-2 positive serum GOM (B), 1:32): 3.000
Reactivity in EIA ([3]; HIV-2 positive serum GOM (B), 1:64): 2.524
Reactivity in EIA ([3]; HIV-2 positive serum GOM (B), 1:128): 2.202
Reactivity in EIA ([3]; HIV-2 positive serum GOM (B), 1:256): 1.452
Reactivity in EIA ([3]; HIV-2 positive serum GOM (B), 1:512): 0.811
Reactivity in EIA ([3]; HIV-2 positive serum GOM (B), 1:1024): 0.571
Reactivity in EIA ([3]; HIV-2 serum PIN, 1:2): 3.000
Reactivity in EIA ([3]; HIV-2 serum PIN, 1:4): 3.000
Reactivity in EIA ([3]; HIV-2 serum PIN, 1:8): 2.596
Reactivity in EIA ([3]; HIV-2 serum PIN, 1:16): 1.940
Reactivity in EIA ([3]; HIV-2 serum PIN, 1:32): 1.209
Reactivity in EIA ([3]; HIV-2 serum PIN, 1:64): 0.582
Reactivity in EIA ([3]; HIV-2 serum PIN, 1:128): 0.368
Reactivity in EIA ([3]; HIV-2 serum PIN, 1:256): 0.186
Reactivity in EIA ([3]; HIV-2 serum S, 1:2): 3.000
Reactivity in EIA ([3]; HIV-2 serum S, 1:4): 3.000
Reactivity in EIA ([3]; HIV-2 serum S, 1:8): 3.000
Reactivity in EIA ([3]; HIV-2 serum S, 1:16): 3.000
Reactivity in EIA ([3]; HIV-2 serum S, 1:32): 2.632
Reactivity in EIA ([3]; HIV-2 serum S, 1:64): 2.155
Reactivity in EIA ([3]; HIV-2 serum S, 1:128): 1.442
Reactivity in EIA ([3]; HIV-2 serum S, 1:256): 0.725
Reactivity in EIA ([3]; HIV-2 serum S, 1:512): 0.516
Reactivity in EIA ([3]; HIV-2 serum SAMB, 1:2): 3.000
Reactivity in EIA ([3]; HIV-2 serum SAMB, 1:4): 3.000
Reactivity in EIA ([3]; HIV-2 serum SAMB, 1:8): 2.854
Reactivity in EIA ([3]; HIV-2 serum SAMB, 1:16): 2.710
Reactivity in EIA ([3]; HIV-2 serum SAMB, 1:32): 2.112
Reactivity in EIA ([3]; HIV-2 serum SAMB, 1:64): 1.400
Reactivity in EIA ([3]; HIV-2 serum SAMB, 1:128): 0.834
Reactivity in EIA ([3]; HIV-2 serum SAMB, 1:256): 0.404
